The values below come from PubChem BioAssay (NCI).

Among the test systems are NCI-H522 lung; M14 melanoma; HCT-15 colon; OVCAR-5 ovarian; HT29 colon; NCI-H226 lung; SK-MEL-28 melanoma; OVCAR-8 ovarian.
Common to all, as to test: NCI tumour cell line growth inhibition, 48 h

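How tested: cells in 96-well plates exposed to compound for 48 hours at five concentrations. At the GI50, growth is halved. TGI is the concentration that stops growth completely.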

In the case of `COC(=O)C1CCC(Nc2cccc(C(F)(F)F)c2)=N1` (stereo unspecified), the TGI in the assay on NCI-H522 lung, in the assay on M14 melanoma, in the assay with HCT-15 colon, in the assay on OVCAR-5 ovarian, with HT29 colon and in the assay with NCI-H226 lung was more than 100 µM each time. Also, the TGI with SK-MEL-28 melanoma and in the assay on OVCAR-8 ovarian was more than 100 µM in each case.
Consider `C=C(CS(=O)(=O)c1ccccc1)[P+](c1ccccc1)(c1ccccc1)c1ccccc1`, for which the TGI with NCI-H522 lung is 44.1 µM; in the assay with M14 melanoma it was 39.4 µM; with HCT-15 colon, more than 100 µM; with OVCAR-5 ovarian, more than 100 µM; with HT29 colon, 37.3 µM; in the assay on NCI-H226 lung, 36.7 µM. Also, the TGI in the assay on SK-MEL-28 melanoma is 25.5 µM; with OVCAR-8 ovarian, 74.1 µM.
Consider `CC(=O)OC1C(CCl)OC(N=[N+]=[N-])C(OC(C)=O)C1OC(C)=O` (stereo unspecified), for which the TGI in the assay on NCI-H522 lung, in the assay with M14 melanoma, with HCT-15 colon, in the assay with HT29 colon, in the assay on SK-MEL-28 melanoma and with OVCAR-8 ovarian was more than 100 µM throughout.
For `C/C(=N/NC(=O)C(N)=O)C(CC(C(=O)Nc1ccccc1C)/C(C)=N\NC(=O)C(N)=O)C(=O)Nc1ccccc1C` (stereo unspecified), the TGI in the assay with NCI-H522 lung, in the assay with M14 melanoma, in the assay on OVCAR-5 ovarian, in the assay with HT29 colon, with NCI-H226 lung and in the assay with SK-MEL-28 melanoma was more than 100 µM in each case. Moreover, the TGI in the assay on OVCAR-8 ovarian was more than 100 µM.
In the case of `Clc1ccc(OC2CCO2)cc1Cl` (stereo unspecified), the TGI with NCI-H522 lung is more than 100 µM; in the assay with M14 melanoma, more than 100 µM; in the assay on HCT-15 colon, 36.8 µM; in the assay on OVCAR-5 ovarian, more than 100 µM; in the assay on HT29 colon, more than 100 µM; with NCI-H226 lung, more than 100 µM. The TGI in the assay with SK-MEL-28 melanoma and in the assay with OVCAR-8 ovarian was more than 100 µM in each case.
Take `CCN(CC)CCNC(=O)c1cccc2cc3ccccc3nc12`: the TGI in the assay on M14 melanoma was 21.7 µM; in the assay on HCT-15 colon, 32.5 µM; in the assay with OVCAR-5 ovarian it was 27.7 µM; in the assay on HT29 colon, 35 µM; with NCI-H226 lung, 15.9 µM; in the assay on SK-MEL-28 melanoma, 23.1 µM. In the assay on OVCAR-8 ovarian, this compound gave a TGI of more than 100 µM.
Take `O=c1c2cc(Br)cc(Br)c2[nH]c(=S)n1-c1ccccc1`: the TGI in the assay on M14 melanoma, in the assay on HCT-15 colon, with OVCAR-5 ovarian, in the assay on HT29 colon, in the assay with NCI-H226 lung and in the assay on SK-MEL-28 melanoma was more than 100 µM throughout. This compound also displayed a TGI with OVCAR-8 ovarian of more than 100 µM.
For `O=C(O)CCC1(Br)CCCCC(Br)C1=O` (stereo unspecified), the TGI in the assay with NCI-H522 lung, with M14 melanoma, in the assay on HCT-15 colon, in the assay with OVCAR-5 ovarian, with HT29 colon and with NCI-H226 lung was more than 100 µM each time. Further, the TGI in the assay on SK-MEL-28 melanoma and with OVCAR-8 ovarian was more than 100 µM throughout.
As for `CC1=C([Se]CC(OC(=O)[C@@H](CO)NC(=O)OC(C)(C)C)C(=O)NC(C)(C)C)C(=O)c2ccccc2C1=O` (stereo partly specified), the GI50 is 1.6 µM in the assay with NCI-H522 lung; 1.66 µM in the assay on M14 melanoma; 1.99 µM with HCT-15 colon; 2.1 µM in the assay on OVCAR-5 ovarian; 2.3 µM in the assay with HT29 colon; 1.96 µM with NCI-H226 lung. Besides, in the assay with SK-MEL-28 melanoma, the GI50 was 2.06 µM. In addition, the TGI in the assay on NCI-H522 lung was found to be 3.14 µM; in the assay with M14 melanoma it was 3.04 µM; in the assay with HCT-15 colon, 3.97 µM; in the assay with OVCAR-5 ovarian it was 3.73 µM; in the assay with HT29 colon, 4.74 µM; in the assay with NCI-H226 lung, 4.21 µM. Further, the TGI with SK-MEL-28 melanoma amounted to 3.55 µM.
On to `C=C1Oc2nc3ccccc3c(=O)n2C1(C)C`, for which the TGI in the assay with NCI-H522 lung, in the assay on M14 melanoma, in the assay with HCT-15 colon, in the assay on OVCAR-5 ovarian, with HT29 colon and in the assay with NCI-H226 lung was more than 100 µM in each case. Further, the TGI in the assay on SK-MEL-28 melanoma and in the assay with OVCAR-8 ovarian was more than 100 µM in each case.
Consider `O=c1c2ccccc2c(=O)c2c1cc(Cl)c1[nH]c3c([nH]c12)c(Cl)cc1c(=O)c2ccccc2c(=O)c13`, for which the TGI in the assay on NCI-H522 lung, in the assay on M14 melanoma, in the assay on HCT-15 colon, in the assay with OVCAR-5 ovarian, in the assay on HT29 colon and with NCI-H226 lung was more than 100 µM throughout. The TGI in the assay on SK-MEL-28 melanoma and with OVCAR-8 ovarian was more than 100 µM throughout.
On to `O=C(O)C#CCO`, for which the TGI in the assay on NCI-H522 lung, in the assay with M14 melanoma, with HCT-15 colon, with OVCAR-5 ovarian, with HT29 colon and in the assay with SK-MEL-28 melanoma was more than 100 µM throughout. In the assay on OVCAR-8 ovarian, this compound had a TGI of more than 100 µM.
